Reference: ChEMBL document CHEMBL3638676, “Triazolopyridine compounds” (2015)

Target: Phosphodiesterase 3 (Homo sapiens, UniProt Q14432+Q13370)
Assay: Scintillation Proximity Assay (SPA): The kinase assay is based on the LanthaScreen technology.
Type: protein assay

IC50: 13 µM
Compound: Cn1cc(-c2cc(F)c3nnc(Sc4ccc5ncc(NCCO)cc5c4)n3c2)cn1
